The text below walks through data of patent US12673933B2, “Aminopyrazine compounds as HPK1 inhibitor and the use thereof” (BEIGENE, LTD., priority 2019, dated 2026).

As usually defined, the pIC50 is the negative decadic logarithm of the IC50, by convention in mol/L.

Molecules are shown by their SMILES. pIC50: −log10 of the molar value.

In the experiment the target is T1, HPK1 kinase (aa1-346, Life Technologies) (Homo sapiens, UniProt Q92918).
T1 construct: HPK1 kinase (aa1-346, Life Technologies); purchased Life Technologies
T1 sequence (Q92918 1-346): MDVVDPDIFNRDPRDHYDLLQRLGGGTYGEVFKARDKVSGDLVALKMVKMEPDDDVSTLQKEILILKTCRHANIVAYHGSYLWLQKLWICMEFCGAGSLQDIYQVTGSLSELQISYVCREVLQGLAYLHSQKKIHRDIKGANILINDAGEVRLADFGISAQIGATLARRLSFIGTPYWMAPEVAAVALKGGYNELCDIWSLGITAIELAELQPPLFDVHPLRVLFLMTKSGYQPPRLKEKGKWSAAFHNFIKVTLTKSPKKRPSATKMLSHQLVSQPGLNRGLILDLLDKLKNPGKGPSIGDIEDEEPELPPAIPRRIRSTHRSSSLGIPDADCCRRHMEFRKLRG
The experiment can be described thus: HPK Kinase Activity Assay at 1 mM ATP (TR-FRET). The format is biochemical. The note with it: HPK1 kinase 40 nM, 0.5 μM STK1 substrate, read-out: Enzymatic activity IC50. In a few lines:
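HPK1 (aa1-346, 40 nM) was preincubated 60 min at room temperature with compound (0–10 μM) in pH 7.0 HEPES/MgCl2 buffer. Reaction ran 120 min at room temperature with 1 mM ATP and 0.5 μM STK1 substrate. Phosphorylation was read as the TR-FRET 665/620 nm ratio, with IC50 from a four-parameter logistic fit.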
On the technique in general: TR-FRET usually uses a lanthanide donor and a delayed reading to cut background.
With `Cc1cc(-c2cnc(N)c(-n3cc(C(=O)N(C)CCN4CCCC4)cn3)n2)cc2c1CCN(C)C2` [Example 302, 1-(3-amino-6-(2,5-dimethyl-1,2,3,4-tetrahydroisoquinolin-7-yl)pyrazin-2-yl)-N-methyl-N-(2-(pyrrolidin-1-yl)ethyl)-1H-pyrazole-4-carboxamide], the pIC50 was 7.27.

With `Cc1cc(-c2cnc(N)c(Oc3cnn(CC(F)(F)F)c3)n2)cc2c1CCN(C)C2` [Example 303, 5-(2,5-dimethyl-1,2,3,4-tetrahydroisoquinolin-7-yl)-3-((1-(2,2,2-trifluoroethyl)-1H-pyrazol-4-yl)oxy)pyrazin-2-amine], the negative-log IC50 (pIC50) was 7.80.

On to `Cc1cc(-c2cnc(N)c(-n3cc(C(=O)N(C)CC4CCOC4)cn3)n2)cc2c1CCN(C)C2` (stereo not drawn) [Example 304, 1-(3-amino-6-(2,5-dimethyl-1,2,3,4-tetrahydroisoquinolin-7-yl)pyrazin-2-yl)-N-methyl-N-((tetrahydrofuran-3-yl)methyl)-1H-pyrazole-4-carboxamide], for which the pIC50 was 8.00.

For the compound `Cc1cc(-c2cnc(N)c(-n3cc(C(=O)NC4CCOC4)cn3)n2)cc2c1CCN(C)C2` (stereo not drawn) [Example 305, 1-(3-amino-6-(2,5-dimethyl-1,2,3,4-tetrahydroisoquinolin-7-yl)pyrazin-2-yl)-N-(tetrahydrofuran-3-yl)-1H-pyrazole-4-carboxamide], the pIC50 is 8.05.

For the compound `Cc1cc(-c2cnc(N)c(-n3cc(C(=O)N(C)C4CCOC4)cn3)n2)cc2c1CCN(C)C2` (stereo not drawn) [Example 306, 1-(3-amino-6-(2,5-dimethyl-1,2,3,4-tetrahydroisoquinolin-7-yl)pyrazin-2-yl)-N-methyl-N-(tetrahydrofuran-3-yl)-1H-pyrazole-4-carboxamide], the negative-log IC50 (pIC50) was 7.05.

Turning to `Cc1cc(-c2cnc(N)c(Oc3cnn(C4CCN(C)CC4)c3)n2)cc2c1CCN(C)C2` [Example 307, 5-(2,5-dimethyl-1,2,3,4-tetrahydroisoquinolin-7-yl)-3-(1-(1-methylpiperidin-4-yl)-1H-pyrazol-4-yloxy)pyrazin-2-amine], the negative logarithm of the IC50 (pIC50) is 8.23.

As to `Cc1cc(-c2cnc(N)c(Oc3cnn(CCC#N)c3)n2)cc2c1CN(C)CC2` [Example 308, 3-(4-((3-amino-6-(2,8-dimethyl-1,2,3,4-tetrahydroisoquinolin-6-yl)pyrazin-2-yl)oxy)-1H-pyrazol-1-yl)propanenitrile], the pIC50 was 7.32.

For `Cc1cc(-c2cnc(N)c(Oc3cnn(C4CCOCC4)c3)n2)cc2c1CCN(C)C2` [Example 309, 5-(2,5-dimethyl-1,2,3,4-tetrahydroisoquinolin-7-yl)-3-(1-(tetrahydro-2H-pyran-4-yl)-1H-pyrazol-4-yloxy)pyrazin-2-amine], the pIC50 was 7.66.

As for `CCN1CC(n2cc(Oc3nc(-c4cc(C)c5c(c4)CN(C)CC5)cnc3N)cn2)C1` [Example 310, 5-(2,5-dimethyl-1,2,3,4-tetrahydroisoquinolin-7-yl)-3-(1-(1-ethylazetidin-3-yl)-1H-pyrazol-4-yloxy)pyrazin-2-amine], the pIC50 is 7.70.

Consider `Cc1cc(-c2cnc(N)c(Oc3cnn([C@H]4CC[C@@](C)(O)CC4)c3)n2)cc2c1CCN(C)C2` [Example 311, (1s,4s)-4-(4-(3-amino-6-(2,5-dimethyl-1,2,3,4-tetrahydroisoquinolin-7-yl)pyrazin-2-yloxy)-1H-pyrazol-1-yl)-1-methylcyclohexanol], for which the negative-log IC50 (pIC50) was 8.11.

As for `Cc1cc(-c2cnc(N)c(Oc3cnn([C@H]4CC[C@@](C)(O)CC4)c3)n2)cc2c1CN(C)CC2` [Example 312, (1s,4s)-4-(4-(3-amino-6-(2,8-dimethyl-1,2,3,4-tetrahydroisoquinolin-6-yl)pyrazin-2-yloxy)-1H-pyrazol-1-yl)-1-methylcyclohexanol], the pIC50 was 7.20.

`Cc1cc(-c2cnc(N)c(Oc3cnn(C(C)(C)CC#N)c3)n2)cc2c1CCN(C)C2` [Example 313, 3-(4-(3-amino-6-(2,5-dimethyl-1,2,3,4-tetrahydroisoquinolin-7-yl)pyrazin-2-yloxy)-1H-pyrazol-1-yl)-3-methylbutanenitrile]: the negative-log IC50 (pIC50) was 8.08.

On to `Cc1cc(-c2cnc(N)c(Oc3cnn(CC4(F)CCOCC4)c3)n2)cc2c1CCN(C)C2` [Example 314, 5-(2,5-dimethyl-1,2,3,4-tetrahydroisoquinolin-7-yl)-3-(1-((4-fluoro-tetrahydro-2H-pyran-4-yl)methyl)-1H-pyrazol-4-yloxy)pyrazin-2-amine], for which the negative logarithm of the IC50 (pIC50) is 8.35.

As for `Cc1cc(-c2cnc(N)c(Oc3cnn([C@H]4C[C@H](C#N)C4)c3)n2)cc2c1CCN(C)C2` [Example 315, (1r,3r)-3-(4-((3-amino-6-(2,5-dimethyl-1,2,3,4-tetrahydroisoquinolin-7-yl)pyrazin-2-yl)oxy)-1H-pyrazol-1-yl)cyclobutane-1-carbonitrile], the pIC50 is 7.48.

On to `Cc1cc(-c2cnc(N)c(Oc3cnn([C@H]4C[C@H](C#N)C4)c3)n2)cc2c1CN(C)CC2` [Example 316, (1r,3r)-3-(4-((3-amino-6-(2,8-dimethyl-1,2,3,4-tetrahydroisoquinolin-6-yl)pyrazin-2-yl)oxy)-1H-pyrazol-1-yl)cyclobutane-1-carbonitrile], for which the negative-log IC50 (pIC50) was 7.07.

For `Cc1cc(-c2cnc(N)c(Oc3cnn(C(C)(C)C#N)c3)n2)cc2c1CCN(C)C2` [Example 317, 2-(4-(3-amino-6-(2,5-dimethyl-1,2,3,4-tetrahydroisoquinolin-7-yl)pyrazin-2-yloxy)-1H-pyrazol-1-yl)-2-methylpropanenitrile], the pIC50 was 7.70.

With `Cc1cc(-c2cnc(N)c(Oc3cnn(CC(C)(C)C#N)c3)n2)cc2c1CN(C)CC2` [Example 318, 3-(4-(3-amino-6-(2,8-dimethyl-1,2,3,4-tetrahydroisoquinolin-6-yl)pyrazin-2-yloxy)-1H-pyrazol-1-yl)-2,2-dimethylpropanenitrile], the negative-log IC50 (pIC50) was 7.22.

As for `CC#Cc1nn(-c2nc(-c3cc(C)c4c(c3)CN(C)CC4)cnc2N)cc1C(=O)N(C)C` [Example 319, 1-(3-amino-6-(2,5-dimethyl-1,2,3,4-tetrahydroisoquinolin-7-yl)pyrazin-2-yl)-N,N-dimethyl-3-(prop-1-ynyl)-1H-pyrazole-4-carboxamide], the pIC50 is 7.74.
